# From patent US20040170669A1, “Feed rations and methods of feeding growing ruminants” (priority 2002, published 2004)
# Marks after values point to notes of the source that are not given here.
# How the values were obtained:
# [1] = 112-day feeding trial: growing beef cattle fed bermudagrass hay plus molasses-based supplements with corn gluten meal or Alimet; type: in vivo, Angus-Brahman crossbred cattle; settings: for Liquid supplement refusal: molasses based supplement remaining from last feeding: one value per feeding date; for BCS change (0-112 days): body condition score; for Added gain: over control; for TDN consumed: total digestible nutrients
# Protocol: An experiment was conducted to study the effect of increasing quantities of methionine from corn gluten meal, an 88% free acid solution of 2-hydroxy-4-(methylthio)butanoic acid sold under the trademark Alimet® (Novus International, Inc., St. Louis, Mo.), on the performance of growing beef cattle fed bermuda grass hay supplemented with molasses-based supplements. The experiment evaluated the effects of adding corn gluten meal or Alimet® to diets of hay supplemented with molasses-based supplements fed to growing beef cattle.
# This experiment evaluated corn gluten meal and Alimet® fed to growing beef cattle at four levels to provide 0, 2, 4, and 6 gm/day of added bypass total sulfur amino acids (TSAA) assuming a 40% bypass of Alimet®. An […] treatment was formulated to provide 8 gm/day of added bypass TSAA from Alimet®. Both TSAA sources were provided in a liquid supplement slurry containing 82% fortified molasses (fortified with ‘12% crude protein, minerals, vitamins) and 18% ground corn or corn gluten meal. Corn gluten meal replaced corn in the supplement keeping the proportion of dry ingredients in the supplement similar across TSAA sources and levels. All supplements were offered to growing cattle to provide 3.28 lb/day of total digestible nutrients (TDN). Supplements were formulated to provide adequate nitrogen in the form of rumen degradable intake protein (DIP) with 0.18 lb DIP provided for each pound of TDN. Much of the DIP in supplements was provided by urea.
# This experiment was conducted at the Santa Fe Beef Unit located near Gainesville. Thirty-two pens (4 head/pen) of Angus-Brahman crossbred cattle (9-12 months of age) were assigned randomly within sex and breed type. The calves averaged 610 lb and calves were in excellent body condition (BCS 5.8) at the start of the trial. Each pen was assigned two steers and two heifers. These 32 pens were randomly assigned to the 8 treatments. Each pen was a two-acre pasture and most grass was grazed off at the start of the trial but warm weather allowed some grass growth during February and March. Molasses slurries were fed on two days each week (equivalent amount for 3 or 4 days at each feeding) at the equivalent daily rate. Molasses slurries were hand mixed in each pen and fed in open troughs. Alimet® was pre-weighed in the laboratory and mixed in the supplement of the assigned pen at each feeding. Bermuda grass hay was offered ad libitum in hay rings outside (no shelter) and molasses slurries were limit fed during the 112-day trial (December thru April). Hay not consumed was collected, weighed, sampled (dry matter analyzed), and removed from the pens every 6 to 8 weeks during the trial. Water and a mineral-vitamin supplement were offered ad libitum.
# Supplement consumption, hay consumption, full weight, shrunk weight (beginning and end only), height, body condition, and blood urea (2 calves/pen) were measured at 28-day intervals during the 112-day trial. Supplement ingredients were sampled twice monthly and each hay bale was weighed and sampled prior to feeding. Supplement ingredients were analyzed for dry matter, organic matter, crude protein, bypass protein, amino acids, and minerals. Hay samples were analyzed for dry matter, organic matter, crude protein, amino acids, in vitro organic matter digestibility, neutral detergent fiber, and minerals.
# [2] = 0 to 6 month old calves, hay plus compound feed; cited from earlier work
# [3] = 2 gm bypass TSAA/d (Alimet 5.7 g/d)
# [4] = 4 gm bypass TSAA/d (Alimet 11.4 g/d)
# [5] = 6 gm bypass TSAA/d (Alimet 17 g/d)
# [6] = 8 gm bypass TSAA/d (Alimet 22.7 g/d)
smiles,measurement,setting,value
"CSCCC(O)C(=O)O (centres unmarked) [Alimet, 2-hydroxy-4-(methylthio)butanoic acid]","Daily gain, 0-28 days (full wt)",[1]; [3],1.58 lb/d
same,"Daily gain, 0-112 days (full wt)",[1]; [3],1.61 lb/d
same,"Daily gain, 1-113 days (shrunk wt)",[1]; [3],1.35^bc lb/d
same,"Daily gain, 28-56 days (full wt)",[1]; [3],1.92 lb/d
same,"Daily gain, 56-84 days (full wt)",[1]; [3],1.09 lb/d
same,"Daily gain, 84-112 days (full wt)",[1]; [3],1.90 lb/d
same,"Feed consumed, Hay",[1]; [3],11.23^b lb/d DM
same,"Feed consumed, Supplement",[1]; [3],4.51^a lb/d DM
same,"Feed consumed, Total",[1]; [3],15.74^b lb/d DM
same,"Feed efficiency, Gain/TDN",[1]; [3],.149^acd
same,"Feed efficiency, Gain/feed DM",[1]; [3],.087^c
same,Height change (0-112 days),[1]; [3],2.73 in.
same,"Daily gain, 0-28 days (full wt)",[1]; [4],1.88 lb/d
same,"Daily gain, 0-112 days (full wt)",[1]; [4],1.53 lb/d
same,"Daily gain, 1-113 days (shrunk wt)",[1]; [4],1.31^ab lb/d
same,"Daily gain, 28-56 days (full wt)",[1]; [4],1.46 lb/d
same,"Daily gain, 56-84 days (full wt)",[1]; [4],.99 lb/d
same,"Daily gain, 84-112 days (full wt)",[1]; [4],1.82 lb/d
same,"Feed consumed, Hay",[1]; [4],10.49^b lb/d DM
same,"Feed consumed, Supplement",[1]; [4],4.51^a lb/d DM
same,"Feed consumed, Total",[1]; [4],14.99^b lb/d DM
same,"Feed efficiency, Gain/TDN",[1]; [4],.149^acd
same,"Feed efficiency, Gain/feed DM",[1]; [4],.088^c
same,Height change (0-112 days),[1]; [4],2.45 in.
same,"Daily gain, 0-28 days (full wt)",[1]; [5],1.77 lb/d
same,"Daily gain, 0-112 days (full wt)",[1]; [5],1.69 lb/d
same,"Daily gain, 1-113 days (shrunk wt)",[1]; [5],1.44^bc lb/d
same,"Daily gain, 28-56 days (full wt)",[1]; [5],1.68 lb/d
same,"Daily gain, 56-84 days (full wt)",[1]; [5],1.40 lb/d
same,"Daily gain, 84-112 days (full wt)",[1]; [5],1.98 lb/d
same,"Feed consumed, Hay",[1]; [5],11.04^b lb/d DM
same,"Feed consumed, Supplement",[1]; [5],4.45^a lb/d DM
same,"Feed consumed, Total",[1]; [5],15.49^b lb/d DM
same,"Feed efficiency, Gain/TDN",[1]; [5],.159^ad
same,"Feed efficiency, Gain/feed DM",[1]; [5],.094^a
same,Height change (0-112 days),[1]; [5],2.80 in.
same,"Daily gain, 0-28 days (full wt)",[1]; [6],1.24 lb/d
same,"Daily gain, 0-112 days (full wt)",[1]; [6],1.52 lb/d
same,"Daily gain, 1-113 days (shrunk wt)",[1]; [6],1.31^ab lb/d
same,"Daily gain, 28-56 days (full wt)",[1]; [6],1.49 lb/d
same,"Daily gain, 56-84 days (full wt)",[1]; [6],.93 lb/d
same,"Daily gain, 84-112 days (full wt)",[1]; [6],2.48 lb/d
same,"Feed consumed, Hay",[1]; [6],10.49^b lb/d DM
same,"Feed consumed, Supplement",[1]; [6],4.08^b lb/d DM
same,"Feed consumed, Total",[1]; [6],14.57^ab lb/d DM
same,"Feed efficiency, Gain/TDN",[1]; [6],.154^d
same,"Feed efficiency, Gain/feed DM",[1]; [6],.091^a
same,Height change (0-112 days),[1]; [6],2.79 in.
same,Liquid supplement refusal: molasses based supplement remaining from last feeding,"[1]; Alimet 5.7 g/d, pen 1",25 pounds
same,Liquid supplement refusal: molasses based supplement remaining from last feeding,"[1]; Alimet 11.4 g/d, pen 8",35 pounds
same,Liquid supplement refusal: molasses based supplement remaining from last feeding,"[1]; Alimet 17 g/d, pen 5",15 pounds
same,Liquid supplement refusal: molasses based supplement remaining from last feeding,"[1]; Alimet 22.7 g/d, pen 4, feeding date 2.19",40 pounds
same,Liquid supplement refusal: molasses based supplement remaining from last feeding,"[1]; Alimet 22.7 g/d, pen 4, feeding date 12.18",20 pounds
same,Liquid supplement refusal: molasses based supplement remaining from last feeding,"[1]; Alimet 22.7 g/d, pen 4, feeding date 12.22",25 pounds
same,Liquid supplement refusal: molasses based supplement remaining from last feeding,"[1]; Alimet 22.7 g/d, pen 4, feeding date 12.26",30 pounds
same,Liquid supplement refusal: molasses based supplement remaining from last feeding,"[1]; Alimet 22.7 g/d, pen 4, feeding date 12.29",35 pounds
same,Liquid supplement refusal: molasses based supplement remaining from last feeding,"[1]; Alimet 22.7 g/d, pen F, feeding date 1.22",20 pounds
same,Liquid supplement refusal: molasses based supplement remaining from last feeding,"[1]; Alimet 22.7 g/d, pen F, feeding date 3.01",35 pounds
same,BCS change (0-112 days),[1]; [3],+.14
same,BCS change (0-112 days),[1]; [4],+.09
same,BCS change (0-112 days),[1]; [5],+.18
same,BCS change (0-112 days),[1]; [6],+.08
same,Added gain,[1]; [3],.17 lb/d
same,Added gain,[1]; [4],.13 lb/d
same,Added gain,[1]; [5],.26 lb/d
same,Added gain,[1]; [6],.13 lb/d
same,TDN consumed,[1]; [3],9.21^b lb/d
same,TDN consumed,[1]; [4],8.84^b lb/d
same,TDN consumed,[1]; [5],9.13^b lb/d
same,TDN consumed,[1]; [6],8.56^ab lb/d
CSCCC(O)C(=O)[O-].CSCCC(O)C(=O)[O-].[Ca+2] (centres unmarked) [calcium salt of 2-hydroxy-4-(methylthio)butanoic acid],Increase of average daily weight gain over control calves,[2],8-10%
